ChEMBL document CHEMBL6153110, “Peptide Double-Stapling and Arginine N-Glycosylation Triggered the Development of Therapeutic Antimicrobial Peptides Capable of Killing Drug-Resistant Bacteria in Mice” (J Med Chem, 2025)
≈ marks a conversion by molar mass, not a printed value. Starred links: 1 amine or outer side, 2 acyl side, 3 side chain; linkers in the order of their positions; H or OH if unused. Positions of bridges follow the written chain, without caps; N, C: chain ends. Non-standard residues stand in square brackets, D forms with d. Residues, ends and D or L forms follow the SMILES beside them. ξ: configuration not given here. X1 = N=C(NCCC[C@H](N[*:1])C(=O)[*:2])N[C@@H]1O[C@H](CO)[C@@H](O[C@H]2O[C@H](CO)[C@@H](O[C@H]3O[C@H](CO)[C@@H](O)[C@H](O)[C@H]3O)[C@H](O)[C@H]2O)[C@H](O)[C@H]1O; Arg(Nω-βLac) = N=C(NCCC[C@H](N)C(=O)O)N[C@@H]1O[C@H](CO)[C@@H](O[C@@H]2O[C@H](CO)[C@H](O)[C@H](O)[C@H]2O)[C@H](O)[C@H]1O; ξαMeNle(6-ylidene) = CC(CCCC=[*:3])(N[*:1])C(=O)[*:2]; R8 = C=CCCCCCC[C@@](C)(N)C(=O)O; S5 = C=CCCC[C@](C)(N)C(=O)O; ξV = CC(C)C(N)C(=O)O

Experiments:
Pseudomonas aeruginosa = assay: Antimicrobial activity against Pseudomonas aeruginosa ATCC 27853 assessed as growth inhibition measured after 8 hrs incubation by standard broth dilution assay; assay type: functional
Streptococcus pneumoniae = assay: Antimicrobial activity against Streptococcus pneumoniae ATCC 49619 assessed as growth inhibition measured after 8 hrs incubation by standard broth dilution assay; assay type: functional
Staphylococcus aureus = assay: Antimicrobial activity against methicillin-resistant Staphylococcus aureus ATCC 43300 assessed as growth inhibition measured after 8 hrs incubation by standard broth dilution assay; assay type: functional
Klebsiella pneumoniae = assay: Antimicrobial activity against Klebsiella pneumoniae ATCC 13883 assessed as growth inhibition measured after 8 hrs incubation by standard broth dilution assay; assay type: functional
[1] = Hemolytic activity in BALB/c mouse red blood cells assessed as hemolysis incubated for 1 hrs; assay type: toxicity, cell-based, Erythrocyte; details: read-out: HD50

Compound	MIC (Pseudomonas aeruginosa)	MIC (Streptococcus pneumoniae)	MIC (Staphylococcus aureus)	MIC (Klebsiella pneumoniae)	HC50 at 1 h [1]
CC(=O)N[C@@H](CC(C)C)C(=O)N[C@@H](CCCCN)C(=O)N[C@@H](CCCNC(=N)N)C(=O)N[C@H](C(=O)N[C@@H](Cc1c[nH]c2ccccc12)C(=O)N[C@@H](CCCCN)C(=O)N[C@@H](CCCNC(=N)N)C(=O)N[C@H](C(=O)N[C@@H](Cc1ccccc1)C(=O)N[C@@H](CCCCN)C(=O)N[C@@H](CC(C)C)C(=O)N[C@@H](CC(C)C)C(=O)N[C@@H](CCCCN)C(=O)N[C@@H](CCCNC(=N)N)C(=O)N[C@@H](Cc1ccc(O)cc1)C(=O)N[C@@H](Cc1c[nH]c2ccccc12)C(=O)N[C@@H](CCCNC(=N)N)C(=O)N[C@@H](CCC(N)=O)C(=O)N[C@@H](CC(C)C)C(=O)N[C@@H](CCCCN)C(=O)N[C@@H](CCCCN)C(=O)N1CCC[C@H]1C(=O)N[C@H](C(=O)N[C@@H](CCCNC(=N)N[C@@H]1O[C@H](CO)[C@@H](O[C@@H]2O[C@H](CO)[C@H](O)[C@H](O)[C@H]2O)[C@H](O)[C@H]1O)C(N)=O)C(C)C)C(C)C)C(C)C (Ac-LKRVWKRVFKLLKRYWRQLKKPV[Arg(Nω-βLac)]-NH2)	5 µg/mL (≈ 1.39 µM)	4.7 µg/mL (≈ 1.31 µM)	4.9 µg/mL (≈ 1.36 µM)	38 µg/mL (≈ 10.6 µM)	39.7 µg/mL
CC(=O)N[C@@H](CCCCN)C(=O)N[C@@H](CCCCN)C(=O)N[C@@H](CCCNC(=N)N)C(=O)N[C@H](C(=O)N[C@@H](Cc1c[nH]c2ccccc12)C(=O)N[C@@H](CCCCN)C(=O)N[C@@H](CCCNC(=N)N)C(=O)N[C@@]1(C)CCC/C=C\CCC[C@@](C)(C(=O)N[C@@H](CCCCN)C(=O)N[C@@]2(C)CCC/C=C\CCC[C@@](C)(C(=O)N[C@@H](CC(C)C)C(=O)N[C@@H](CCCCN)C(=O)N[C@@H](CCCCN)C(=O)N3CCC[C@H]3C(=O)N[C@H](C(=O)N[C@@H](CCCNC(=N)N)C(N)=O)C(C)C)NC(=O)[C@H](CCCNC(=N)N)NC(=O)[C@H](CCCCN)NC(=O)[C@H](Cc3ccc(O)cc3)NC2=O)NC(=O)[C@H](CC(C)C)NC(=O)[C@H](CCCCN)NC(=O)[C@H](Cc2ccccc2)NC1=O)C(C)C (Ac-KKRVWKR[S5]FKL[S5]K[S5]YKR[S5]LKKPVR-NH2; staple (Z) 8-12, 14-18)	2.6 µg/mL (≈ 0.805 µM)	4.7 µg/mL (≈ 1.46 µM)	2.5 µg/mL (≈ 0.774 µM)	2.5 µg/mL (≈ 0.774 µM)	38.7 µg/mL
CC(=O)N[C@@H](CCCCN)C(=O)N[C@@H](CCCCN)C(=O)N[C@@H](CCCNC(=N)N)C(=O)N[C@H](C(=O)N[C@@H](Cc1c[nH]c2ccccc12)C(=O)N[C@@H](CCCCN)C(=O)N[C@@H](CCCNC(=N)N)C(=O)N[C@@]1(C)CCC/C=C\CCC[C@@](C)(C(=O)N[C@@H](CCCCN)C(=O)N[C@@]2(C)CCC/C=C\CCC[C@@](C)(C(=O)N[C@@H](CC(C)C)C(=O)N[C@@H](CCCCN)C(=O)N[C@@H](CCCCN)C(=O)N3CCC[C@H]3C(=O)N[C@H](C(=O)N[C@@H](CCCNC(=N)N)C(N)=O)C(C)C)NC(=O)[C@H](CCCNC(=N)N)NC(=O)[C@H](Cc3c[nH]c4ccccc34)NC(=O)[C@H](CCCCN)NC2=O)NC(=O)[C@H](CC(C)C)NC(=O)[C@H](CCCCN)NC(=O)[C@H](Cc2ccccc2)NC1=O)C(C)C (Ac-KKRVWKR[S5]FKL[S5]K[S5]KWR[S5]LKKPVR-NH2; staple (Z) 8-12, 14-18)	2.6 µg/mL (≈ 0.8 µM)	4.7 µg/mL (≈ 1.45 µM)	2.5 µg/mL (≈ 0.769 µM)	38 µg/mL (≈ 11.7 µM)	88.4 µg/mL
CC(=O)N[C@@H](CCCCN)C(=O)N[C@@H](CCCCN)C(=O)N[C@@H](CCCNC(=N)N)C(=O)N[C@H](C(=O)N[C@]1(C)CCCCCC/C=C\CCC[C@@](C)(C(=O)N[C@@H](CCCCN)C(=O)N[C@@]2(C)CCC/C=C\CCCC(C)(C(=O)N[C@@H](CC(C)C)C(=O)N[C@@H](CCCCN)C(=O)N[C@@H](CCCCN)C(=O)N3CCC[C@H]3C(=O)N[C@H](C(=O)N[C@@H](CCCNC(=N)N)C(N)=O)C(C)C)NC(=O)[C@H](CCCNC(=N)N)NC(=O)[C@H](Cc3c[nH]c4ccccc34)NC(=O)[C@H](Cc3ccc(O)cc3)NC2=O)NC(=O)[C@H](CC(C)C)NC(=O)[C@H](CCCCN)NC(=O)[C@H](Cc2ccccc2)NC(=O)C(C(C)C)NC(=O)[C@H](CCCNC(=N)N)NC(=O)[C@H](CCCCN)NC1=O)C(C)C (stereo not given in full) (Ac-KKRV[R8]KR[ξV]FKL[S5]K[S5]YWR[ξαMeNle(6-ylidene)]LKKPVR-NH2; staple (Z) 5-12, 14-18)	5 µg/mL (≈ 1.54 µM)	2.4 µg/mL (≈ 0.74 µM)	4.9 µg/mL (≈ 1.51 µM)	4.9 µg/mL (≈ 1.51 µM)	12.7 µg/mL
CC(=O)N[C@@H](CC(C)C)C(=O)N[C@@H](CCCCN)C(=O)N[C@@H](CCCNC(=N)N)C(=O)N[C@H](C(=O)N[C@@H](Cc1c[nH]c2ccccc12)C(=O)N[C@@H](CCCCN)C(=O)N[C@@H](CCCNC(=N)N)C(=O)N[C@H](C(=O)N[C@@H](Cc1ccccc1)C(=O)N[C@@H](CCCCN)C(=O)N[C@@H](CC(C)C)C(=O)N[C@@H](CCCCN)C(=O)N[C@@H](CCCCN)C(=O)N[C@@]1(C)CCC/C=C\CCC[C@@](C)(C(=O)N[C@@H](CC(C)C)C(=O)N[C@@H](CCCCN)C(=O)N[C@@H](CCCCN)C(=O)N2CCC[C@H]2C(=O)N[C@H](C(=O)N[C@@H](CCCNC(=N)N)C(N)=O)C(C)C)NC(=O)[C@H](CCCNC(=N)N)NC(=O)[C@H](Cc2c[nH]c3ccccc23)NC(=O)[C@H](Cc2ccc(O)cc2)NC1=O)C(C)C)C(C)C (Ac-LKRVWKRVFKLKK[S5]YWR[S5]LKKPVR-NH2; staple (Z) 14-18)	5 µg/mL (≈ 1.54 µM)	4.7 µg/mL (≈ 1.45 µM)	10.1 µg/mL (≈ 3.11 µM)	38 µg/mL (≈ 11.7 µM)	70.1 µg/mL
CC(=O)N[C@@H](CCCCN)C(=O)N[C@@H](CCCCN)C(=O)N[C@@H](CCCNC(=N)N)C(=O)N[C@H](C(=O)N[C@@H](Cc1c[nH]c2ccccc12)C(=O)N[C@@H](CCCCN)C(=O)N[C@@H](CCCNC(=N)N)C(=O)N[C@H](C(=O)N[C@@H](Cc1ccccc1)C(=O)N[C@@H](CCCCN)C(=O)N[C@@H](CC(C)C)C(=O)N[C@@H](CC(C)C)C(=O)N[C@@H](CCCCN)C(=O)N[C@@]1(C)CCC/C=C\CCC[C@@](C)(C(=O)N[C@@H](CC(C)C)C(=O)N[C@@H](CCCCN)C(=O)N[C@@H](CCCCN)C(=O)N2CCC[C@H]2C(=O)N[C@H](C(=O)N[C@@H](CCCNC(=N)N)C(N)=O)C(C)C)NC(=O)[C@H](CCCNC(=N)N)NC(=O)[C@H](Cc2c[nH]c3ccccc23)NC(=O)[C@H](Cc2ccc(O)cc2)NC1=O)C(C)C)C(C)C (Ac-KKRVWKRVFKLLK[S5]YWR[S5]LKKPVR-NH2; staple (Z) 14-18)	2.9 µg/mL (≈ 0.893 µM)	2.4 µg/mL (≈ 0.739 µM)	4.9 µg/mL (≈ 1.51 µM)	4.9 µg/mL (≈ 1.51 µM)	19.2 µg/mL
CC(=O)N[C@@H](CC(C)C)C(=O)N[C@@H](CCCCN)C(=O)N[C@@H](CCCNC(=N)N)C(=O)N[C@H](C(=O)N[C@@H](Cc1c[nH]c2ccccc12)C(=O)N[C@@H](CCCCN)C(=O)N[C@@H](CCCNC(=N)N)C(=O)N[C@H](C(=O)N[C@@H](Cc1ccccc1)C(=O)N[C@@H](CCCCN)C(=O)N[C@@H](CC(C)C)C(=O)N[C@@H](CC(C)C)C(=O)N[C@@H](CCCCN)C(=O)N[C@@H](CCCNC(=N)N)C(=O)N[C@@H](Cc1ccc(O)cc1)C(=O)N[C@@H](Cc1c[nH]c2ccccc12)C(=O)N[C@@H](CCCNC(=N)N)C(=O)N[C@@H](CCC(N)=O)C(=O)N[C@@H](CC(C)C)C(=O)N[C@@H](CCCCN)C(=O)N[C@@H](CCCCN)C(=O)N1CCC[C@H]1C(=O)N[C@H](C(=O)N[C@@H](CCCNC(=N)N[C@@H]1O[C@H](CO)[C@@H](O[C@H]2O[C@H](CO)[C@@H](O[C@H]3O[C@H](CO)[C@@H](O)[C@H](O)[C@H]3O)[C@H](O)[C@H]2O)[C@H](O)[C@H]1O)C(N)=O)C(C)C)C(C)C)C(C)C (Ac-LKRVWKRVFKLLKRYWRQLKKPV[X1]-NH2)	2.6 µg/mL (≈ 0.693 µM)	4.7 µg/mL (≈ 1.25 µM)	4.9 µg/mL (≈ 1.31 µM)	38 µg/mL (≈ 10.1 µM)	45.7 µg/mL
CC(=O)N[C@@H](CCCCN)C(=O)N[C@@H](CCCCN)C(=O)N[C@@H](CCCNC(=N)N)C(=O)N[C@H](C(=O)N[C@@]1(C)CCC/C=C\CCC[C@@](C)(C(=O)N[C@@H](CCCCN)C(=O)N[C@@H](CC(C)C)C(=O)N[C@@H](CC(C)C)C(=O)N[C@@H](CCCCN)C(=O)N[C@@]2(C)CCC/C=C\CCC[C@@](C)(C(=O)N[C@@H](CC(C)C)C(=O)N[C@@H](CCCCN)C(=O)N[C@@H](CCCCN)C(=O)N3CCC[C@H]3C(=O)N[C@H](C(=O)N[C@@H](CCCNC(=N)N)C(N)=O)C(C)C)NC(=O)[C@H](CCCNC(=N)N)NC(=O)[C@H](Cc3c[nH]c4ccccc34)NC(=O)[C@H](Cc3ccc(O)cc3)NC2=O)NC(=O)[C@H](C(C)C)NC(=O)[C@H](CCCNC(=N)N)NC(=O)[C@H](CCCCN)NC1=O)C(C)C (Ac-KKRV[S5]KRV[S5]KLLK[S5]YWR[S5]LKKPVR-NH2; staple (Z) 5-9, 14-18)	5 µg/mL (≈ 1.58 µM)	4.7 µg/mL (≈ 1.48 µM)	4.9 µg/mL (≈ 1.55 µM)	4.9 µg/mL (≈ 1.55 µM)	13.2 µg/mL
CC(=O)N[C@@H](CC(C)C)C(=O)N[C@@H](CCCCN)C(=O)N[C@@H](CCCNC(=N)N)C(=O)N[C@H](C(=O)N[C@@H](Cc1c[nH]c2ccccc12)C(=O)N[C@@H](CCCCN)C(=O)N[C@@H](CCCNC(=N)N)C(=O)N[C@H](C(=O)N[C@@H](Cc1ccccc1)C(=O)N[C@@H](CCCCN)C(=O)N[C@@H](CC(C)C)C(=O)N[C@@H](CC(C)C)C(=O)N[C@@H](CCCCN)C(=O)N[C@@]1(C)CCC/C=C\CCC[C@@](C)(C(=O)N[C@@H](CC(C)C)C(=O)N[C@@H](CCCCN)C(=O)N[C@@H](CCCCN)C(=O)N2CCC[C@H]2C(=O)N[C@H](C(=O)N[C@@H](CCCNC(=N)N)C(N)=O)C(C)C)NC(=O)[C@H](CCCNC(=N)N)NC(=O)[C@H](Cc2c[nH]c3ccccc23)NC(=O)[C@H](Cc2ccc(O)cc2)NC1=O)C(C)C)C(C)C (Ac-LKRVWKRVFKLLK[S5]YWR[S5]LKKPVR-NH2; staple (Z) 14-18)	5 µg/mL (≈ 1.55 µM)	2.4 µg/mL (≈ 0.742 µM)	4.9 µg/mL (≈ 1.52 µM)	2.5 µg/mL (≈ 0.773 µM)	12.2 µg/mL
